Test results published in EP0942911B1, “BENZOPYRANOPYRROLE AND BENZOPYRANOPYRIDINE ALPHA-1 ADRENERGIC COMPOUNDS” (Abbott Laboratories, priority 1996, dated 1998).
Counter-ions that a name gives are not always drawn. Like-named read-outs stand apart in the source and are kept apart here.

What was measured:
Assay in all cases: biochemical
[1] = target: T1, α-1A adrenoreceptor (rat submaxillary gland) (Rattus norvegicus, UniProt P43140); format: binding; conditions: read-out: Radioligand Binding (Ki, nM) 1A (Rat)
T1 sequence (P43140 1-466): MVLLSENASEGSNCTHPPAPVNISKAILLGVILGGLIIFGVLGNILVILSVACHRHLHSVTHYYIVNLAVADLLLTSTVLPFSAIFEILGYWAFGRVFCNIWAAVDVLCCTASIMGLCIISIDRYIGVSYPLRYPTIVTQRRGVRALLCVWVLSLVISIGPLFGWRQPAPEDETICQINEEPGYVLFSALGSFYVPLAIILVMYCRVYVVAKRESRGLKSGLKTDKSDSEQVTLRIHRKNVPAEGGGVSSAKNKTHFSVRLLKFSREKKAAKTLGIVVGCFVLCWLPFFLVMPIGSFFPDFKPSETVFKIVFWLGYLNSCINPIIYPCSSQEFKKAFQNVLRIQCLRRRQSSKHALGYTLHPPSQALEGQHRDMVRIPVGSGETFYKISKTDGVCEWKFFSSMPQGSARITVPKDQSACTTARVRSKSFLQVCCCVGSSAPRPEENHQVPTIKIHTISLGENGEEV
Procedure, shortened: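 Membranes were prepared from rat submaxillary glands as the α-1A adrenoreceptor source. Competition binding followed Greengrass and Bremner, with bound radioligand measured by scintillation counting.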

[2] = target: T2, α-1a adrenoreceptor (Bos taurus, UniProt P18130); format: binding, bovine; conditions: read-out: Radioligand Binding (Ki, nM) 1a (Bovine)
T2 sequence (P18130 1-466): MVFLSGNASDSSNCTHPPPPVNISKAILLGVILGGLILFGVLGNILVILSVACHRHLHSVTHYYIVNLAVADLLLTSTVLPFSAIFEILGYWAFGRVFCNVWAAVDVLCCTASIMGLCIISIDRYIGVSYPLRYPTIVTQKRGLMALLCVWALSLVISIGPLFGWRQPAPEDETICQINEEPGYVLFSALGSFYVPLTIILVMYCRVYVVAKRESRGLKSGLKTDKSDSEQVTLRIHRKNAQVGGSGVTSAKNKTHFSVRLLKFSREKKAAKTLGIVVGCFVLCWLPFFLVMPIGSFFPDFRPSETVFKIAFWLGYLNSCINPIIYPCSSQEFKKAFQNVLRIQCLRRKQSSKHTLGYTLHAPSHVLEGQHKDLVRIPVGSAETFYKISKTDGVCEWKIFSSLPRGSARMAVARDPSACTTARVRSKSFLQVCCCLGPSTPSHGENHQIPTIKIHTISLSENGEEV
Procedure, shortened: (§1)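 Membranes were prepared from high-density single-cell clones of transfected LTK cells, plus rat submaxillary gland for the α-1A site. Binding was measured by radioligand displacement with scintillation counting.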

[3] = target: T3, α-1b adrenoreceptor (Mesocricetus auratus, UniProt P18841); format: binding, hamster; conditions: read-out: Radioligand Binding (Ki, nM) 1b (Hamster)
T3 sequence (P18841 1-515): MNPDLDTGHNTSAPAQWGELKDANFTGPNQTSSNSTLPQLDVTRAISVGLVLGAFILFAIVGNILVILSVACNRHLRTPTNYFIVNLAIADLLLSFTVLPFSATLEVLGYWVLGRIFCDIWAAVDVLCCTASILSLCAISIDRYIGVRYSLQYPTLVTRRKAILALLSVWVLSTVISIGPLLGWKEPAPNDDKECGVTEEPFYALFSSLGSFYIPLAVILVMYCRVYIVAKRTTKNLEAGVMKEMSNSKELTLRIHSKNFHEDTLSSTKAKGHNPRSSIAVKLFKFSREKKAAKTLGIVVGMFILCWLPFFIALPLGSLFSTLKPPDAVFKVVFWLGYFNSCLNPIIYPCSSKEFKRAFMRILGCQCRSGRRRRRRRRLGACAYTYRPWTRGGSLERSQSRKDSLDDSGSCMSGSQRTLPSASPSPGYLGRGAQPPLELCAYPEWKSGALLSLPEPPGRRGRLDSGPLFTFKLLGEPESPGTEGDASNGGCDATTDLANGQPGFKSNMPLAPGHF
Procedure, shortened: as §1

[4] = [3H]-prazosin radioligand, rat submaxillary gland membranes
[5] = [3H]-prazosin radioligand, cloned receptor in LTK cell membranes

Compound | Ki [1, 4] [nM] | Ki [2, 5] [nM] | Ki [3, 5] [nM] | Ki [1] [nM] | Ki [2] [nM] | Ki [3] [nM]
COc1ccc2sc3c(=O)n(CCCCN4C[C@H]5COc6cccc(OC)c6[C@@H]5C4)c(=O)[nH]c3c2n1 [Example 26, 3-[4-((3aS,9bR)-trans-9-Methoxy-1,2,3,3a,4,9b-hexahydro-[1]-benzopyrano[3,4-c]pyrrol-2-yl)butyl]-8-methoxy-pyrido[2',3':4,5]thieno[3,2-d]pyrimidine-2,4(1H,3H)-dione hydrochloride] | 0.09 | 0.022 | 0.376 |  |  | 
COc1cccc2c1[C@@H]1CN(CCCCn3c(=O)[nH]c4c(sc5nccc(OC)c54)c3=O)C[C@@H]1CO2 [Example 36, 3-[4-((3aR,9bR)-cis-9-Methoxy-1,2,3,3a,4,9b-hexahydro-[1]-benzopyrano[3,4-c]pyrrol-2-yl)butyl]-9-methoxy-pyrido[3',2':4,5]thieno[3,2-d]pyrimidine-2,4(1H,3H)-dione hydrochloride] | 0.539 | 0.124 | 2.85 |  |  | 
COc1cccc2c1[C@@H]1CN(CCCCn3c(=O)[nH]c4c(sc5nc(C)ccc54)c3=O)C[C@@H]1CO2 [Example 35, 3-[4-((3aR,9bR)-cis-9-Methoxy-1,2,3,3a,4,9b-hexahydro-[1]-benzopyrano[3,4-c]pyrrol-2-yl)butyl]-7-methyl-pyrido[3',2':4,5]thieno[3,2-d]pyrimidine-2,4(1H,3H)-dione hydrochloride] | 0.312 | 0.057 | 5.12 |  |  | 
COc1cccc2c1[C@@H]1CN(CCCCn3c(=O)[nH]c4c(sc5cc(Cl)cnc54)c3=O)C[C@@H]1CO2 [Example 38, 3-[4-((3aR,9bR)-cis-9-Methoxy-1,2,3,3a,4,9b-hexahydro-[1]-benzopyrano[3,4-c]pyrrol-2-yl)butyl]-7-chloro-pyrido[2',3':4,5]thieno[3,2-d]pyrimidine-2,4(1H,3H)-dione hydrochloride] | 0.376 | 0.057 | 5.63 |  |  | 
COc1cccc2c1[C@@H]1CN(CCn3c(=O)[nH]c4c(sc5ccccc54)c3=O)C[C@@H]1CO2.Cl (racemic) [Example 65, 3-[2-((±)-cis-9-Methoxy-1,2,3,3a,4,9b-hexahydro-[1]-benzopyrano[3,4-c]pyrrol-2-yl)ethyl]-[1]benzthieno[3,2-d]pyrimidine-2,4(1H,3H)-dione hydrochloride] |  |  |  | 15 | 1.82 | 20.7
COc1cccc2c1[C@@H]1CN(CCCCn3c(=O)[nH]c4c(sc5cccnc54)c3=O)C[C@@H]1CO2 [Example 1, 3-[4-((3aR,9bR)-cis-9-Methoxy-1,2,3,3a,4,9b-hexahydro-[1]-benzopyrano[3,4-c]pyrrol-2-yl)butyl]-pyrido[2',3':4,5]thieno[3,2-d]pyrimidine-2,4(1H,3H)-dione hydrochloride] | 0.045 | 0.024 | 1.14 |  |  | 
COc1cccc2c1[C@@H]1CN(CCCCn3c(=O)[nH]c4c(sc5ncc(-c6ccccc6)nc54)c3=O)C[C@H]1CO2 [Example 50, 3-[4-((3aS,9bR)-trans-9-Methoxy-1,2,3,3a,4,9b-hexahydro-[1]-benzopyrano[3,4-c]pyrrol-2-yl)butyl]-8-phenyl-pyrazino[2',3':4,5]thieno[3,2-d]pyrimidine-2,4(1H,3H)-dione hydrochloride] | 1.93 | 0.335 | 20.8 |  |  | 
COc1cnc2sc3c(=O)n(CCCCN4C[C@@H]5COc6cccc(OC)c6[C@@H]5C4)c(=O)[nH]c3c2n1 [Example 31, 3-[4-((3aR,9bR)-cis-9-Methoxy-1,2,3,3a,4,9b-hexahydro-[1]-benzopyrano[3,4-c]pyrrol-2-yl)butyl]-8-methoxy-pyrazino[2',3':4,5]thieno[3,2-d]pyrimidine-2,4(1H,3H)-dione hydrochloride] | 0.224 | 0.06 | 4.79 |  |  | 
COc1ccc2sc3c(=O)n(CCCCN4C[C@@H]5COc6cccc(OC)c6[C@@H]5C4)c(=O)[nH]c3c2n1 [Example 30, 3-[4-((3aR,9bR)-cis-9-Methoxy-1,2,3,3a,4,9b-hexahydro-[1]-benzopyrano[3,4-c]pyrrol-2-yl)butyl]-8-methoxy-pyrido[2',3':4,5]thieno[3,2-d]pyrimidine-2,4(1H,3H)-dione hydrochloride] | 0.264 | 0.066 | 2.67 |  |  | 
COc1cc2[nH]c(=O)n(CCCCN3C[C@@H]4COc5ccccc5[C@@H]4C3)c(=O)c2cc1OC (racemic) [Example 81, 3-[4-((±1-cis-1,2,3,3a,4,9b-hexahydro-[1]-benzopyrano[3,4-c]pyrrol-2-yl)butyl]-6,7-dimethoxy-quinazoline-2,4(1H,3H)-dione hydrochloride] | 0.045 | 0.052 | 0.192 |  |  | 
3-[4-((3aR,9bR)-cis-9-Methoxy-1,2,3,3a,4,9b-hexahydro-[1]-benzopyrano[3,4-c]pyrrol-2-yl]butyl]-7-methoxy-pyrido[3',2':4,5]thieno[3,2-d]pyrimidine-2,4(1H,3H)-dione hydrochloride [Example 33] | 0.811 | 0.082 | 10.5 |  |  | 
COc1cccc2c1OC[C@H]1CN(CCCn3c(=O)[nH]c4c(sc5ccccc54)c3=O)C[C@@H]21.Cl (racemic) [Example 68, 3-[3-((±)-cis-6-Methoxy-1,2,3,3a,4,9b-hexahydro-[1]-benzopyrano[3,4-c]pyrrol-2-yl)propyl]-[1]benzthieno[3,2-d]pyrimidine-2,4(1H,3H)-dione hydrochloride] |  |  |  | 40.6 | 7.82 | 23.6
COc1ccc2c(n1)sc1c(=O)n(CCCCN3C[C@H]4COc5cccc(OC)c5[C@@H]4C3)c(=O)[nH]c12 [Example 46, 3-[4-((3aS,9bR)-trans-9-Methoxy-1,2,3,3a,4,9b-hexahydro-[1]-benzopyrano[3,4-c]pyrrol-2-yl)butyl]-7-methoxy-pyrido[3',2':4,5]thieno[3,2-d]pyrimidine-2,4(1H,3H)-dione hydrochloride] | 0.353 | 0.033 | 2.58 |  |  | 
COc1ccc2c(c1)OC[C@H]1CN(CCn3c(=O)[nH]c4c(sc5ccccc54)c3=O)C[C@@H]21.Cl (racemic) [Example 63, 3-[2-((±)-cis-7-Methoxy-1,2,3,3a,4,9b-hexahydro-[1]-benzopyrano[3,4-c]pyrrol-2-yl)ethyl]-[1]benzthieno[3,2-d]pyrimidine-2,4(1H,3H)-dione hydrochloride] |  |  |  | 51.2 | 11.2 | 92.2
COc1cccc2c1[C@@H]1CN(CCCCn3c(=O)[nH]c4c(sc5ccc(Cl)nc54)c3=O)C[C@H]1CO2 [Example 25, 3-[4-((3aS,9bR)-trans-9-Methoxy-1,2,3,3a,4,9b-hexahydro-[1]-benzopyrano[3,4-c]pyrrol-2-yl)butyl]-8-chloro-pyrido[2',3':4,5]thieno[3,2-d]pyrimidine-2,4(1H,3H)-dione dihydrochloride] | 0.061 | 0.03 | 0.591 |  |  | 
COc1cccc2c1[C@@H]1CN(CCCCn3c(=O)[nH]c4c(sc5c(Cl)nccc54)c3=O)C[C@@H]1CO2 [Example 53, 3-[4-((3aR,9bR)-cis-9-Methoxy-1,2,3,3a,4,9b-hexahydro-[1]-benzopyrano[3,4-c]pyrrol-2-yl)butyl]-6-chloro-pyrido[4',3':4,5]thieno[3,2-d]pyrimidine-2,4(1H,3H)-dione] | 0.872 | 0.037 | 9.42 |  |  | 
